{"source": "ChEMBL document CHEMBL5634134", "about": "“Design, synthesis, and biological evaluation of novel 4,4'-bipyridine derivatives acting as CDK9-Cyclin T1 protein-protein interaction inhibitors against triple-negative breast cancer” (Eur J Med Chem, 2023)", "tested_on": "MDA-MB-231", "experiment": "Induction of apoptosis in human MDA-MB-231 cells assessed as necrotic cells at 111 nM incubated for 72 hrs by Annexin V-FITC/PI staining based flow cytometry analysis (reference value: 0.49 %)", "assay_type": "functional"}
{"smiles": "COc1ccc(C(=O)Nc2cc(-c3ccnc(N4CCC(O)CC4)c3)ccn2)cc1", "values": [{"measurement": "Activity", "value": 0.17, "unit": "%"}]}
